Patent publication US5262417A, “Antibacterial quinolone compounds” (The Upjohn Company, priority 1991, dated 1993)
Converted amounts (≈) assume the structure as drawn. “And” between values parts separate entries of the source, which are not always exact repeats. Identical values can stand only once. Like-named read-outs stand apart in the source and are kept apart here.

Key:
Type in all cases: cell-based
[1] = test system: Acinetobacter calcoaceticus; assay: Minimum inhibitory concentration (MIC) by agar dilution; settings: for MIC: Acinetobacter calcoaceticus
In short: (§1)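 Agar dilution per NCCLS guidance: compounds serially diluted into unsupplemented Mueller Hinton agar at 47 °C. Bacteria grown overnight at 35 °C, adjusted in TSB to 0.5 McFarland, diluted 1:20 and spotted with a Steers replicator; MIC is the lowest inhibitory concentration.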

Klebsiella pneumoniae = assay: as above
In short: as §1

Escherichia coli = assay: as above; settings: for MIC: Escherichia coli
In short: as §1

Streptococcus pyogenes = assay: as above; settings: for MIC: Streptococcus pyogenes
In short: as §1

Serratia marcescens = assay: as above; settings: 20 h, read-out: MINIMUM INHIBITORY CONCENTRATION
In short: as §1

Proteus penneri = assay: as above; settings: for MIC: Proteus penneri
In short: as §1

[2] = test system: Staphylococcus epidermidis; assay: as above; settings: 20 h
In short: as §1

Streptococcus pneumoniae = assay: as above; settings: for MIC: Streptococcus pneumoniae
In short: as §1

Streptococcus faecalis = assay: as above; settings: Enterococcus faecalis
In short: as §1

Pseudomonas aeruginosa = assay: as above; settings: for MIC: Pseudomonas aeruginosa
In short: as §1

Citerobacter freundii = assay: as above
In short: as §1

Staphylococcus aureus = assay: as above; settings: for MIC: Staphylococcus aureus
In short: as §1

[3] = test system: Staphylococcus aureus UC 80 (SA); assay: Dipped disk (disk-diffusion) assay, disks loaded with 0.10 ml
Method: (§2) The effectiveness of the subject compounds on some bacteria were obtained by performing a dipped disk assay. The antibacterial activity of the compounds is determined by the disk-diffusion method. […] They were then applied to the surface of microorganism-seeded agar assay trays, which contained the bacterial strain Pseudomonas aeruginosa UC 95 )PA), Escherichia coli UC 51 (EC) or Staphylococcus aureus UC 80 (SA). The assay trays were incubated overnight under aerobic condition to allow for the growth of the organisms. Zones of growth inhibition due to the action of the antibiotic were then measured to the nearest millimeter.

[4] = test system: Pseudomonas aeruginosa UC 95 (PA); assay: as above; settings: Pseudomonas aeruginosa, UC95; Conc 1 mg/ml, 0.10 ml per disk; read-out: Growth Inhibition Zone, PA
Method: as §2

[5] = test system: Escherichia coli UC 51 (EC); assay: as above; design: zone of inhibition: dose or concentration left out as unconfirmed
Method: as §2

[6] = 20 h, read-out: MINIMUM INHIBITORY CONCENTRATION

SMILES: O=C(O)c1cn(C2CC2)c2cc(N3CCNCC3)c(F)cc2c1=O [Ciprofloxacin, reference compound]
- MIC ([1]; 20 h, read-out: MINIMUM INHIBITORY CONCENTRATION, Cult No. 12170, MHA): 0.25 µg/mL (≈ 0.754 µM)
- MIC ([1]; UC12170, 20 h, read-out: Minimum Inhibitory Concentration, A. calcoaceticus UC 12170, Table CI): 0.25 µg/mL (≈ 0.754 µM)
- MINIMUM INHIBITORY CONCENTRATION ([1]; Cult No. 12170, MHA): 0.25 mcg per ml and 0.125 mcg per ml
- MIC (Klebsiella pneumoniae; [6]): 0.03 µg/mL (≈ 0.0905 µM)
- MIC (Klebsiella pneumoniae; UC12081, 20 h, read-out: Minimum Inhibitory Concentration): 0.03 µg/mL (≈ 0.0905 µM)
- MINIMUM INHIBITORY CONCENTRATION (Escherichia coli; Cult No. 9855, MHA): 0.015 mcg per ml and 0.03 mcg per ml
- MINIMUM INHIBITORY CONCENTRATION (Escherichia coli; Cult No. 9952, MHA): 0.015 mcg per ml and < 0.008 mcg per ml
- MIC (Escherichia coli; 20 h, read-out: MINIMUM INHIBITORY CONCENTRATION, Cult No. 6674, MHA): 0.015 µg/mL (≈ 0.0453 µM)
- MIC (Escherichia coli; 20 h, read-out: MINIMUM INHIBITORY CONCENTRATION, Cult No. 9451, MHA): 0.015 µg/mL (≈ 0.0453 µM)
- MIC (Escherichia coli; 20 h, read-out: MINIMUM INHIBITORY CONCENTRATION, Cult No. 9855, MHA): 0.015 µg/mL (≈ 0.0453 µM)
- MIC (Escherichia coli; 20 h, read-out: MINIMUM INHIBITORY CONCENTRATION, Cult No. 9952, MHA): 0.015 µg/mL (≈ 0.0453 µM)
- MIC (Escherichia coli; UC6674, 20 h, E. coli UC 6674, Table CI, read-out: Minimum Inhibitory Concentration): 0.015 µg/mL (≈ 0.0453 µM)
- MIC (Escherichia coli; UC9451, 20 h, E. coli UC 9451, Table CI, read-out: Minimum Inhibitory Concentration): 0.015 µg/mL (≈ 0.0453 µM)
- MIC (Escherichia coli; UC9855, 20 h, E. coli UC 9855, Table CI, read-out: Minimum Inhibitory Concentration): 0.015 µg/mL (≈ 0.0453 µM)
- MIC (Escherichia coli; UC9952, 20 h, E. coli UC 9952, Table CI, read-out: Minimum Inhibitory Concentration): < 0.008 µg/mL
- MINIMUM INHIBITORY CONCENTRATION (Streptococcus pyogenes; Cult No. 152, MHA): 0.25 mcg per ml and 0.125 mcg per ml
- MIC (Streptococcus pyogenes; 20 h, read-out: MINIMUM INHIBITORY CONCENTRATION, Cult No. 152, MHA): 0.25 µg/mL (≈ 0.754 µM)
- MIC (Streptococcus pyogenes; UC152, 20 h, read-out: Minimum Inhibitory Concentration, S. pyogenes UC 152, Table CI): 0.25 µg/mL (≈ 0.754 µM)
- MIC (Serratia marcescens): 0.06 µg/mL (≈ 0.181 µM)
- MINIMUM INHIBITORY CONCENTRATION (Proteus penneri; Cult No. 9679, MHA): 0.03 mcg per ml and 0.015 mcg per ml
- MIC (Proteus penneri; 20 h, read-out: MINIMUM INHIBITORY CONCENTRATION, Cult No. 9679, MHA): 0.015 µg/mL (≈ 0.0453 µM)
- MIC (Proteus penneri; UC9679, 20 h, read-out: Minimum Inhibitory Concentration, P. penneri UC 9679, Table CI): 0.015 µg/mL (≈ 0.0453 µM)
- MIC ([2]; read-out: MINIMUM INHIBITORY CONCENTRATION): 0.125 µg/mL (≈ 0.377 µM)
- MIC ([2]; read-out: Minimum Inhibitory Concentration): 0.06 µg/mL (≈ 0.181 µM)
- MINIMUM INHIBITORY CONCENTRATION (Streptococcus pneumoniae; Cult No. 41, MHA): 0.5 mcg per ml and 0.25 mcg per ml
- MIC (Streptococcus pneumoniae; 20 h, read-out: MINIMUM INHIBITORY CONCENTRATION, Cult No. 41, MHA): 0.5 µg/mL (≈ 1.51 µM)
- MIC (Streptococcus pneumoniae; UC41, 20 h, read-out: Minimum Inhibitory Concentration, S. pneumoniae UC 41, Table CI): 0.5 µg/mL (≈ 1.51 µM)
- MIC (Streptococcus faecalis; [6]): 0.5 µg/mL (≈ 1.51 µM)
- MIC (Streptococcus faecalis; UC9217, 20 h, read-out: Minimum Inhibitory Concentration): 0.5 µg/mL (≈ 1.51 µM)
- MINIMUM INHIBITORY CONCENTRATION (Pseudomonas aeruginosa; Cult No. 9191, MHA): 0.25 mcg per ml and 0.125 mcg per ml
- MIC (Pseudomonas aeruginosa; 20 h, read-out: MINIMUM INHIBITORY CONCENTRATION, Cult No. 6676, MHA): 0.5 µg/mL (≈ 1.51 µM)
- MIC (Pseudomonas aeruginosa; 20 h, read-out: MINIMUM INHIBITORY CONCENTRATION, Cult No. 9191, MHA): 0.25 µg/mL (≈ 0.754 µM)
- MIC (Pseudomonas aeruginosa; 20 h, read-out: MINIMUM INHIBITORY CONCENTRATION, Cult No. 12120, MHA): 0.125 µg/mL (≈ 0.377 µM)
- MIC (Pseudomonas aeruginosa; UC6676, 20 h, read-out: Minimum Inhibitory Concentration, Ps. aeruginosa UC 6676, Table CI): 0.5 µg/mL (≈ 1.51 µM)
- MIC (Pseudomonas aeruginosa; UC9191, 20 h, read-out: Minimum Inhibitory Concentration, Ps. aeruginosa UC 9191, Table CI): 0.125 µg/mL (≈ 0.377 µM)
- MIC (Pseudomonas aeruginosa; UC12120, 20 h, read-out: Minimum Inhibitory Concentration, Ps. aeruginosa UC 12120, Table CI): 0.125 µg/mL (≈ 0.377 µM)
- MIC (Citerobacter freundii; [6]): < 0.008 µg/mL
- MIC (Citerobacter freundii; Citrobacter freundii, UC3507, 20 h, read-out: Minimum Inhibitory Concentration): < 0.008 µg/mL
- MINIMUM INHIBITORY CONCENTRATION (Staphylococcus aureus; Cult No. 6685, MHA): 0.25 mcg per ml and 0.125 mcg per ml
- MINIMUM INHIBITORY CONCENTRATION (Staphylococcus aureus; Cult No. 9213, MHA): 1 mcg per ml and 0.5 mcg per ml
- MINIMUM INHIBITORY CONCENTRATION (Staphylococcus aureus; Cult No. 9218, MHA): 0.5 mcg per ml and 0.25 mcg per ml
- MIC (Staphylococcus aureus; 20 h, read-out: MINIMUM INHIBITORY CONCENTRATION, Cult No. 3665, MHA): 1 µg/mL (≈ 3.02 µM)
- MIC (Staphylococcus aureus; 20 h, read-out: MINIMUM INHIBITORY CONCENTRATION, Cult No. 6685, MHA): 0.25 µg/mL (≈ 0.754 µM)
- MIC (Staphylococcus aureus; 20 h, read-out: MINIMUM INHIBITORY CONCENTRATION, Cult No. 9213, MHA): 1 µg/mL (≈ 3.02 µM)
- MIC (Staphylococcus aureus; 20 h, read-out: MINIMUM INHIBITORY CONCENTRATION, Cult No. 9218, MHA): 0.5 µg/mL (≈ 1.51 µM)
- MIC (Staphylococcus aureus; 20 h, read-out: MINIMUM INHIBITORY CONCENTRATION, Cult No. 9271, MHA): 0.5 µg/mL (≈ 1.51 µM)
- MIC (Staphylococcus aureus; UC6685, 20 h, read-out: Minimum Inhibitory Concentration, S. aureus UC 6685, Table CI): 0.25 µg/mL (≈ 0.754 µM)
- MIC (Staphylococcus aureus; UC9213, 20 h, read-out: Minimum Inhibitory Concentration, S. aureus UC 9213, Table CI): 1 µg/mL (≈ 3.02 µM)
- MIC (Staphylococcus aureus; UC9218, 20 h, read-out: Minimum Inhibitory Concentration, S. aureus UC 9218, Table CI): 0.5 µg/mL (≈ 1.51 µM)
- MIC (Staphylococcus aureus; UC9271, 20 h, read-out: Minimum Inhibitory Concentration, S. aureus UC 9271, Table CI): 0.5 µg/mL (≈ 1.51 µM)
- Growth Inhibition Zone, SA ([3]; Conc 1 mg/ml, 0.10 ml per disk): 30 mm
- zone of inhibition at 1000 µg/mL ([3]; Staphylococcus aureus, UC80, read-out: Growth Inhibition Zone, SA, Conc 1 mg/ml, 0.10 ml per disk): 28 mm
- zone of inhibition at 1000 µg/mL [4]: 48 mm
- Growth Inhibition Zone, EC ([5]; Conc 1 mg/ml, 0.10 ml per disk): 35 mm
- zone of inhibition ([5]; Escherichia coli, UC51, 0.10 ml per disk, read-out: Growth Inhibition Zone, EC): 33 mm
